How the values were obtained:
[1] = target: T1, DAP epimerase (DapF); experiment: X-ray crystal structure ([…] Å); DAP dehydrogenase-coupled inhibition assay after […] h incubation; assay type: biochemical, Anabaena sp. YBS01
T1 construct: C-terminal hexahistidine tag

[2] = target: T2, DAP epimerase (DapF) (Arabidopsis thaliana, UniProt Q9LFG2); experiment: DAP dehydrogenase-coupled assay at […] inhibitor, time-dependent pre-incubation; assay type: biochemical
T2 sequence (Q9LFG2 52-362): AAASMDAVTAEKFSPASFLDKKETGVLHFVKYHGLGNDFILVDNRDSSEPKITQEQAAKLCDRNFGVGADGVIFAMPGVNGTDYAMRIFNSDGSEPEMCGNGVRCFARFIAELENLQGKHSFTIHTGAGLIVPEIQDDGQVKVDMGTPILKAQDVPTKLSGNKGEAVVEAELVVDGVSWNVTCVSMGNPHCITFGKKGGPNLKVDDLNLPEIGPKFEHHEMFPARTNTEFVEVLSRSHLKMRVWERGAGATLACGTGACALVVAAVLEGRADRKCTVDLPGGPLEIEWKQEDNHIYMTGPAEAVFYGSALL

[3] = target: T1, DAP epimerase (DapF); experiment: DAP dehydrogenase-coupled assay, […] h pre-incubation, slow-binding; assay type: biochemical, Anabaena sp. YBS01
[4] = substrate: N[C@@H](CCC[C@H](N)C(=O)O)C(=O)O; experiment: purified protein

Row | IC50 [1] [µM] | IC50 [3] [µM] | Molecule | DAP dehydrogenase-coupled assay at 250 μM inhibitor, time-dependent pre-incubati [2] | Km [4] [µM]
1 | 160 | – | C[C@@](N)(CCC[C@H](N)C(=O)O)C(=O)O [D,L-α-methylDAP, (2R,6S)‐2,6‐diamino‐2‐methylheptanedioic acid] | A. thaliana DapF behaved similarly to Anabaena DapF and activity decreased with increasing length of pre‐incubation | –
2 | – | 120 | C[C@](N)(CCC[C@H](N)C(=O)O)C(=O)O [L,L-α-methylDAP] | A. thaliana DapF behaved similarly to Anabaena DapF and activity decreased with increasing length of pre‐incubation | –
3 | – | – | DAP epimerase (DapF) (Arabidopsis thaliana) (protein) AAASMDAVTAEKFSPASFLDKKETGVLHFVKYHGLGNDFILVDNRDSSEPKITQEQAAKLCDRNFGVGADGVIFAMPGVNGTDYAMRIFNSDGSEPEMCGNGVRCFARFIAELENLQGKHSFTIHTGAGLIVPEIQDDGQVKVDMGTPILKAQDVPTKLSGNKGEAVVEAELVVDGVSWNVTCVSMGNPHCITFGKKGGPNLKVDDLNLPEIGPKFEHHEMFPARTNTEFVEVLSRSHLKMRVWERGAGATLACGTGACALVVAAVLEGRADRKCTVDLPGGPLEIEWKQEDNHIYMTGPAEAVFYGSALL | – | 68

Source: publication PMC12039745, “Structure and inhibition of diaminopimelic acid epimerase by slow‐binding α‐methyl amino acids” (Protein Science : A Publication of the Protein Society, 2025)
